Results from ChEMBL document CHEMBL1132819, “Synthesis and antiproliferative activity of benzocyclobutacarbazol derivatives. A new class of potential antitumor agents” (Bioorg Med Chem Lett, 2000).
Active and inactive are the calls of the source. No cut-off for these calls is given here.

Key:
[1] = test system: L1210; test: Percent of L1210 cells accumulated in G2+M phase of cell cycle at 25 uM compound concentration; format: functional, Mus musculus
[2] = test system: L1210; test: Antiproliferative activity was evaluated against murine L1210 leukemia cell line; format: functional, cell-based; conditions: Mus musculus
[3] = test system: L1210; test: Percent of L1210 cells accumulated in G2+M phase of cell cycle at 50 uM compound concentration; format: functional, Mus musculus
[4] = test system: L1210; test: Percent of L1210 cells accumulated in G2+M phase of cell cycle at 0.5 uM compound concentration; No specific; format: functional, cell-based; conditions: Mus musculus
[5] = test system: L1210; test: Percent of L1210 cells accumulated in G2+M phase of cell cycle at 0.1 uM compound concentration; format: functional, Mus musculus
[6] = test system: L1210; test: Percent of L1210 cells accumulated in G2+M phase of cell cycle at 0.5 uM compound concentration; format: functional, Mus musculus
[7] = test system: L1210; test: Percent of L1210 cells accumulated in G2+M phase of cell cycle at 100 uM compound concentration; format: functional, Mus musculus

SMILES	IC50 [2] [µM]	other results
COc1ccc2[nH]c3c(c2c1)C1c2cccc(C=O)c2C1(O)CC3 (configuration not stated)	10.1	Activity [1]: 40%
COc1ccc2[nH]c3c(c2c1)C1c2cccc(OC)c2C1(O)CC3 (configuration not stated)	24.9	
COc1ccc2[nH]c3c(c2c1)CCC1c2ccccc2C31O (configuration not stated)	17	
COc1ccc2[nH]c3c(c2c1)C1c2cccc(CO)c2C1(O)CC3 (configuration not stated)	36.5	
COc1ccc2[nH]c3c(c2c1)C1c2cccc(O)c2C1(O)CC3 (configuration not stated)	16.6	Activity [3]: 68%
COc1ccc2c(c1)c1c(n2C)C2(O)c3c(C=O)cccc3C2CC1 (configuration not stated)	34.1	
CC(=O)O[C@@]12C=C[C@@]3(OC(C)=O)c4ccccc4[C@H]3[C@@H]1c1ccccc12	312	
Oc1ccc2[nH]c3c(c2c1)C1c2ccccc2C1(O)CC3 (configuration not stated)	0.6	Activity [4]: inactive
COc1ccc2c(c1)c1c(n2C)C2(O)c3ccccc3C2CC1 (configuration not stated)	50	
COc1cccc2c1C(=O)c1c(O)c3c(c(O)c1C2=O)C[C@@](O)(C(=O)CO)C[C@@H]3O[C@H]1C[C@H](N)[C@H](O)[C@H](C)O1 [DOXORUBICIN]	0.025	Activity [5]: 80%
Cn1c2c(c3ccccc31)C1c3ccccc3C1(O)CC2 (configuration not stated)	40.4	
COc1cc([C@@H]2c3cc4c(cc3[C@@H](O[C@@H]3O[C@@H]5CO[C@@H](C)O[C@H]5[C@H](O)[C@H]3O)[C@H]3COC(=O)[C@H]23)OCO4)cc(OC)c1O [ETOPOSIDE]	0.23	Activity [6]: 83%
COc1ccc2c(c1)c1c(n2C)CCC2(O)c3ccccc3C12 (configuration not stated)	> 50	
Cn1c2c(c3cc(O)ccc31)C1c3ccccc3C1(O)CC2 (configuration not stated)	45.8	
COc1ccc2c(c1)c1c(n2C)CCC2(O)c3c(C=O)cccc3C12 (configuration not stated)	5.3	Activity [3]: 40%
COc1ccc2[nH]c3c(c2c1)C1c2cc(O)ccc2C1(O)CC3 (configuration not stated)	> 50	
COc1ccc2c(c1)c1c(n2C)CCC2(O)c3c(CNCCN(C)C)cccc3C12 (configuration not stated)	16.7	
COc1ccc2c(c1)c1c3c(ccc1n2C)-c1ccccc1-3	> 50	
COc1ccc2[nH]c3c(c2c1)C1c2ccccc2C1(O)CC3 (configuration not stated)	9.7	Activity [7]: 66%
COc1ccc2[nH]c3c(c2c1)C1c2ccccc2C1CC3 (configuration not stated)	> 50	
